Assay results from the supplement of paper PMC10307832.

How the values were obtained:
Test in all cases: relative viability (nuclei count vs DMSO), 5 days (fraction); higher = more cells survive
[1] = compound: C[As](C)SC[C@H](NC(=O)CC[C@H](N)C(=O)O)C(=O)NCC(=O)O [Darinaparsin] + C[C@]1(O)C[C@@H](c2nc(-c3ccc4ccc(-c5ccccc5)nc4c3)c3c(N)nccn32)C1 [Linsitinib] (partner 1 µM)
Procedure, shortened: (§1)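 Relative viability divides the nuclei count in treated wells by that in vehicle wells. Lung cancer cell lines were seeded in 1536-well plates, dosed by pin tool the next day, and fixed and stained after 5 days in one step with final 0.05% Triton X-100, 1% formaldehyde and 1 ug/ml Hoechst. Dosing was a single drug or a fixed anchor-drug dose plus five library-drug doses (not always all listed) in √10 steps, and values are medians of duplicate plates imaged at 4×.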

[2] = compound: CC1=C(C=C(C=C1)NC(=O)C2=CC(=CC=C2)C(C)(C)C#N)NC3=CC4=C(C=C3)N=CN(C4=O)C [AZ628] + COc1cccc2cc(-c3nc([C@H]4CC[C@H](C(=O)O)CC4)n4ncnc(N)c34)[nH]c12 [OSI-027] (partner 0.5 µM)
Procedure, shortened: as §1

[3] = compound: C[As](C)SC[C@H](NC(=O)CC[C@H](N)C(=O)O)C(=O)NCC(=O)O [Darinaparsin] + Nc1ncn([C@H]2C[C@H](O)[C@@H](CO)O2)c(=O)n1 [Decitabine] (partner 2 µM)
Procedure, shortened: as §1

[4] = compound: C1CC2=C(C1)C=C(C=C2)OC3=NC(=C4C(=N3)N(C=N4)CC5=CC=C(C=C5)C6=CC=CC=C6)N[C@@H](CC7=CC=CC=C7)CO [QS11] + Cc1cc(Nc2cc(N3CCN(C)CC3)nc(Sc3ccc(NC(=O)C4CC4)cc3)n2)n[nH]1 [Tozasertib] (partner 0.1 µM)
Procedure, shortened: as §1

Row | Cell Line | relative viability ([1]; first compound 0.08 µM) | relative viability ([1]; first compound 0.8 µM) | relative viability ([1]; first compound 2.53 µM) | relative viability ([1]; first compound 8 µM) | relative viability ([2]; first compound 0.08 µM) | relative viability ([2]; first compound 0.253 µM) | relative viability ([2]; first compound 0.8 µM) | relative viability ([2]; first compound 2.53 µM) | relative viability ([2]; first compound 8 µM) | relative viability ([3]; first compound 0.08 µM) | relative viability ([3]; first compound 0.8 µM) | relative viability ([3]; first compound 2.53 µM) | relative viability ([3]; first compound 8 µM) | relative viability ([4]; first compound 0.08 µM) | relative viability ([4]; first compound 0.253 µM) | relative viability ([4]; first compound 0.8 µM) | relative viability ([4]; first compound 2.53 µM) | relative viability ([4]; first compound 8 µM)
1 | NCI-H358 | 0.753 | 0.601 | 0.665 | 0.68 | 0.647 | 0.602 | 0.403 | 0.354 | 0.286 | 0.189 | 0.21 | 0.231 | 0.193 | 0.099 | 0.106 | 0.108 | 0.101 | 0.109
2 | NCI-H441 | 0.755 | 0.506 | 0.497 | 0.47 | 0.801 | 0.558 | 0.634 | 0.588 | 0.492 | 0.255 | 0.21 | 0.245 | 0.19 | 0.642 | 0.572 | 0.582 | 0.481 | 0.581
3 | NCI-H460 | 0.814 | 1.04 | 0.713 | 1.22 | 0.738 | 0.64 | 0.259 | 0.429 | 0.107 | 0.749 | 0.496 | 0.461 | 0.59 | 0.3 | 0.446 | – | 0.0921 | 0.143
4 | NCI-H520 | 1.02 | 1.08 | 0.863 | 0.985 | 0.262 | 0.21 | 0.206 | 0.203 | 0.232 | 0.528 | 0.55 | 0.472 | 0.552 | 0.465 | 0.454 | 0.503 | 0.418 | 0.407
5 | NCI-H596 | 1.3 | 0.934 | 0.928 | 1.27 | 0.715 | 0.67 | 0.818 | 0.721 | 0.528 | 1.02 | 1.11 | 1 | 1.15 | 0.875 | 0.879 | 0.923 | 0.93 | 1.13
6 | NCI-H647 | 1.84 | 1.1 | 1.17 | 1.53 | 0.666 | 0.722 | 0.495 | 0.537 | 0.462 | 0.444 | 0.39 | 0.346 | 0.476 | 0.287 | 0.268 | 0.291 | 0.323 | 0.197
7 | NCI-H650 | 1.26 | 0.9 | 0.801 | 0.871 | 0.664 | 0.687 | 0.766 | 0.689 | 0.678 | 0.296 | 0.35 | 0.333 | 0.338 | 0.65 | 0.759 | 0.728 | 0.641 | 0.536
8 | NCI-H661 | 0.558 | 0.569 | 0.526 | 0.593 | 0.631 | 0.617 | 0.513 | 0.593 | 0.47 | 0.581 | 0.528 | 0.523 | 0.652 | 0.36 | 0.375 | 0.299 | 0.353 | 0.343
9 | NCI-H727 | 0.3 | 0.225 | 0.319 | 0.354 | 0.626 | 0.402 | 0.328 | 0.397 | 0.338 | 0.891 | 0.816 | 0.9 | 1.04 | 0.58 | 0.602 | 0.539 | 0.647 | 0.511
10 | NCI-H838 | 1.28 | 0.962 | 0.997 | 1.24 | 0.487 | 0.413 | 0.303 | 0.325 | 0.354 | 0.488 | 0.425 | 0.47 | 0.513 | 0.293 | 0.276 | 0.232 | 0.224 | 0.209
11 | NCI-H1355 | 0.805 | 0.746 | 0.686 | 0.838 | 0.435 | 0.327 | 0.311 | 0.308 | 0.298 | 0.38 | 0.357 | 0.304 | 0.369 | 0.569 | 0.564 | 0.425 | 0.452 | 0.413
12 | NCI-H1395 | 1.01 | 0.995 | 0.97 | 0.991 | 0.652 | 0.544 | 0.625 | 0.56 | 0.554 | 0.79 | 0.659 | 0.727 | 0.645 | 0.728 | 0.697 | 0.748 | 0.686 | 0.72
13 | NCI-H1437 | 1.52 | 1.14 | 0.888 | 1.29 | 0.896 | 0.836 | 0.723 | 0.934 | 0.904 | 0.653 | 0.565 | 0.583 | 0.599 | 0.44 | 0.45 | 0.398 | 0.344 | 0.304
14 | NCI-H1651 | 1.21 | 1.08 | 0.938 | 1.13 | 0.577 | 0.703 | 0.649 | 0.579 | 0.659 | 0.589 | 0.66 | 0.596 | 0.665 | 0.819 | 0.698 | 0.678 | 0.548 | 0.507
15 | NCI-H1666 | 0.996 | 0.884 | 0.994 | 0.931 | 0.827 | 0.789 | 0.676 | 0.744 | 0.656 | 0.679 | 0.74 | 0.766 | 0.786 | 0.61 | 0.532 | 0.515 | 0.521 | 0.383
16 | NCI-H1734 | 1.23 | 0.917 | 0.674 | 0.932 | 0.604 | 0.565 | 0.512 | 0.46 | 0.293 | 0.558 | 0.483 | 0.504 | 0.529 | 0.25 | 0.273 | 0.28 | 0.246 | 0.316
17 | NCI-H1755 | 1.07 | 0.969 | 1.02 | 1.13 | 0.683 | 0.74 | 0.781 | 0.636 | 0.575 | 0.748 | 0.801 | 0.714 | 0.784 | 0.617 | 0.555 | 0.454 | 0.515 | 0.411
